The values that follow come from patent US10526318B2, “Oral cannabinoid receptor modulator formulations” (THE CLEVELAND CLINIC FOUNDATION, priority 2018, dated 2020).

SMILES strings stand for the structures.

Data set [1] can be described thus: MDA7 GB/IB non-sink microcentrifuge dissolution test. Format: physicochemical. As to the method: In the first round of testing, experiments were carried out using crystalline API, 25% MDA7: HPMCAS-H, 25% MDA7: Eudragit L100, 25/65/10%:HPMCAS-M:TPGS, 25/65/10% MDA7:PVP VA64:TPGS, and 40% MDA7: HPMCAS-M. The results of these experiments are shown in FIG. 1, and Table 1 below.

Data set [2] can be described thus: Microcentrifuge dissolution test, second round of SDD testing. The note with it: 400 μgA/mL in 0.5 wt % SIF in PBS, pH 6.5, 37° C. Type of data set: physicochemical. As to the method:
In the second round of testing, experiments were carried out using crystalline API (active pharmaceutical ingredient; MDA7), 10% MDA7 in HPMCAS-M SDD, 25% MDA7 in HPMCAS-M SDD, 25% MDA7 in HPMCAS-L SDD, and 25% MDA7:PVP VA64 SDD. The test conditions were 400 μgA/mL in 0.5 wt % SIF in PBS, pH 6.5, 37° C.

In data set [3] the test system is male beagle dogs. The note with it: intravenous, 5 mg/mL in 20% HPβCD, Dog1001 and Dog1002.
Protocol: The mixture was vortexed then stirred at room temperature for 93 minutes forming a clear yellow solution at a concentration of 5 mg/mL for intravenous dosing. The intravenous dose solution was sterile-filtered using a Millex GV PVDF 0.22 μm filter (Millipore) prior to dosing.
Using clean technique, an aliquot of the 5 mg/mL Group 1 formulation (2.8 mL) was combined with 20% HPβCD (4.2 mL), and vortexed to form a clear yellow solution at a concentration of 2 mg/mL for intravenous dosing.
A total of fifteen male beagle dogs (plus one spare animal) were selected from the Test Facility's colony of non-naïve animals. The animals were assigned to the study based on acceptable health as determined by a Test Facility veterinarian following a pre-study health status check. The pre-study health status check included a physical exam, serum chemistry and hematology evaluations. The animals were placed into five groups of three animals per group. All animals were fasted overnight prior to dose administration.
Each animal in Group 1 received the prepared test article as a 30-60 second intravenous injection by way of a temporary percutaneous catheter placed in a peripheral vein. Immediately after each intravenous dose, the catheter was flushed with 3 mL of saline prior to removal. […]
Data set [4] concerns mice. The note with it: cited from earlier work.

Turning to `CC1(Cc2ccccc2)COc2cc(C(=O)N3CCCCC3)ccc21` (centres unmarked) [Crystalline API, 3-benzyl-3-methyl-2,3-dihydrobenzofuran-6-carboxylic acid-piperidine amide], in data set [1], the AUC90 is reported as 2,360 min*μg/mL, the C90 came to 31 µg/mL, the C1200 was found to be 31 µg/mL and the Cmax90 came out at 31000 ng/mL. Also, in data set [1], the Ultra90 turned out to be 31 µg/mL and the Ultra1200 stood at 31 µg/mL. In data set [2], the AUC90 is given as 2,010 min*μg/mL, the C90 turned out to be 24 µg/mL, the C1200 was 28 µg/mL and the Cmax90 amounted to 27000 ng/mL. For the same molecule, in data set [2], the Ultra90 turned out to be 20 µg/mL and the Ultra1200 turned out to be 24 µg/mL. Further, the “clinical effects observed following dosing” value in data set [3] is on record as “adverse clinical effects”.
With `Cc1c(C(=O)NN2CCCCC2)nn(-c2ccc(Cl)cc2Cl)c1-c1ccc(Cl)cc1` [SR141716A], the “effect on food intake” value in data set [4] is “reduces food intake”.
